Paper PMC3530649 (Journal of the American Chemical Society, 2012)

T1: (E)-β-farnesene synthase (EBFS) (Mentha x piperita, UniProt O48935)
T1 sequence (O48935 1-550): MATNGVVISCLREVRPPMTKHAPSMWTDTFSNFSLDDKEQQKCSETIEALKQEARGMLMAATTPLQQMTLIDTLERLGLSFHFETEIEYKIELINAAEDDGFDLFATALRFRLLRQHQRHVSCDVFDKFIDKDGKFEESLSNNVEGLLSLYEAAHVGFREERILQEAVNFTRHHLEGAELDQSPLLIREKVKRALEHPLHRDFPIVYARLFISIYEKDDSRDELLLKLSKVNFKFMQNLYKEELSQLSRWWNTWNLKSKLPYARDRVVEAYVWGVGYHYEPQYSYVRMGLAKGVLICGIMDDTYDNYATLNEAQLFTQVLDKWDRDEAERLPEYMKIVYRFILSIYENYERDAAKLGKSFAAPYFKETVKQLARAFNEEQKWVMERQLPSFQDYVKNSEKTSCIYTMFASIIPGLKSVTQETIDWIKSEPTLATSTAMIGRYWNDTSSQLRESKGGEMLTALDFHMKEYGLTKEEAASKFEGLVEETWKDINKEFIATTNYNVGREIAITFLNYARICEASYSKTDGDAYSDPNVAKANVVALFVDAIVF


Columns and labels:
[1] = target: T1, (E)-β-farnesene synthase (EBFS); assay: steady-state inhibition, radiometric microassay; assay type: biochemical
purified protein = substrate: CC(C)=CCC/C(C)=C/CC/C(C)=C/CO[P@@](=O)(O)OP(=O)(O)O; assay: purified protein; details: labelled compound (tritiated)
[2] = substrate: C=CC(C)(CC/C=C(\C)CCC=C(C)C)OP(=O)(O)OP(=O)(O)O; assay: steady-state kinetics, radiometric microassay; assay type: biochemical, Mentha x piperita; details: labelled compound ((3RS)-(1Z)-trans-[1-3H1]NDP), racemic
[3] = substrate: CC(C)=CCC/C(C)=C/CC/C(C)=C(\F)COP(=O)(O)OP(=O)(O)O; assay: steady-state kinetics, radiometric microassay; assay type: biochemical, Mentha x piperita; details: labelled compound ((1RS)-2-fluoro[1-3H1]FDP)

Row | Ki [1] [µM] | Molecule | Km (purified protein) [µM] | Km [2] [µM] | Km [3] [µM]
1 | 1.3 ± 0.1 | CC(C)=CCC/C(C)=C/CC/C(C)=C(\F)COP(=O)(O)OP(=O)(O)O [2F-3, (2Z,6E)-2-fluorofarnesyl diphosphate] | – | – | –
2 | 1.6 ± 0.2 | CC(C)=CCC/C(C)=C/CC/C(=C/COP(=O)(O)OP(=O)(O)O)C(F)(F)F [3CF3-3, (6E)-3-trifluoromethylfarnesyl diphosphate] | – | – | –
3 | 2.3 ± 0.2 | CC(C)=CCC/C(C)=C/CCC(=CCOP(=O)(O)OP(=O)(O)O)CF [3CH2F-3, (6E)-3-fluoromethylfarnesyl diphosphate] | – | – | –
4 | – | (E)-β-farnesene synthase (EBFS) (Mentha x piperita) (protein) MATNGVVISCLREVRPPMTKHAPSMWTDTFSNFSLDDKEQQKCSETIEALKQEARGMLMAATTPLQQMTLIDTLERLGLSFHFETEIEYKIELINAAEDDGFDLFATALRFRLLRQHQRHVSCDVFDKFIDKDGKFEESLSNNVEGLLSLYEAAHVGFREERILQEAVNFTRHHLEGAELDQSPLLIREKVKRALEHPLHRDFPIVYARLFISIYEKDDSRDELLLKLSKVNFKFMQNLYKEELSQLSRWWNTWNLKSKLPYARDRVVEAYVWGVGYHYEPQYSYVRMGLAKGVLICGIMDDTYDNYATLNEAQLFTQVLDKWDRDEAERLPEYMKIVYRFILSIYENYERDAAKLGKSFAAPYFKETVKQLARAFNEEQKWVMERQLPSFQDYVKNSEKTSCIYTMFASIIPGLKSVTQETIDWIKSEPTLATSTAMIGRYWNDTSSQLRESKGGEMLTALDFHMKEYGLTKEEAASKFEGLVEETWKDINKEFIATTNYNVGREIAITFLNYARICEASYSKTDGDAYSDPNVAKANVVALFVDAIVF | 1.8 ± 0.2 | 25.0 ± 4.2 | 1.6 ± 0.2
